Test results from patent publication US10287270B2, “Amino pyrimidine SSAO inhibitors” (ELI LILLY AND COMPANY, priority 2016, dated 2019).
Structures can show the parent of a compound that is named as a salt. Where two headings read alike, the source gives them in different places.

Legend:
[1] = test system: Male C57BL/6N mice fed 3H diet; test: Mouse model of NASH and fibrosis induced by 3H diet; format: in vivo; conditions: for Hepatic inflammation Score (0-3) Left / Macrovesicular vaculation Score (0-3) Left / Perisinusoidal fibrosis Score (0-3) Left: left lobe; for Hepatic inflammation Score (0-3) Right / Macrovesicular vaculation Score (0-3) Right / Perisinusoidal fibrosis Score (0-3) Right: right lobe
Protocol: Male C57BL/6N mice are fed with D09100301 diet (Research Diets, 40% fat, 2% cholesterol, 24% fructose, (the, high fat, high cholesterol and high fructose, the “3H diet”) for 150 days. Each mouse is then singly housed after 5 days for an acclimation period. Plasma alanine aminotransferase (ALT) and cytokeratin 18 (CK18) are measured. After one week of recovery, the mice are randomized into 5 groups based on their ALT values, CK18 values, and body weight. […] Blood is collected from mice treated with the compound of Example 6 for 76 days 2 hours after the last dose. Compound levels in the plasma are analyzed by mass spectroscopy. […] At the completion of the study, the animals are sacrificed and their livers excised. Two sections of the left and right lobes are fixed in neutral buffered 10% formalin. Liver tissue slides are stained with hematoxylin and eosin (H&E), Sirius red, and Masson's Trichrome to prepare slides for pathological analysis. All specimens are examined microscopically and scored as a modified Brunt score NASH Activity Score. Scores are based on the grading scheme and end-points as described in Brunt E. M, et al., “Histopathology of nonalcoholic fatty liver disease,” World J. of Gastroenterol, 2010, 16(42), 5286-5296. Group means are then calculated for each individual end-point. The following endpoints are used to characterize the fast food model of NASH in mice as modified from NASH endpoints (See Brunt, E. M. “Histopathology of nonalcoholic fatty liver disease,” Clin Liver Dis., 2009, 13, 533-544 and Brunt, E. M, et al., “Nonalcoholic steatohepatitis: A proposal for grading and staging the histological lesions”, Am J Gastroenterology, 1999, 94(9), 2467-2474.

[2] = biological target: human recombinant SSAO (hSSAO) (Homo sapiens (Human), UniProt Q16853); test: SSAO/VAP-1 in vitro activity, MAO-Glo assay, recombinant SSAO; format: biochemical; conditions: substrate 10 μM, mean ± SEM, read-out: hSSAO Inhib Rel IC50
Protocol: Amine oxidase activity of recombinant SSAO, MAOa, and MAOb isoforms are measured using the MAO-Glo™ assay kit from Promega (V1402). Test compounds (with DMSO as vehicle, 0.5% v/v for SSAO) and the enzyme are incubated for 10 mins at room temperature before the addition of the luminogenic substrate. The substrate concentration is 10 μM for human recombinant SSAO. The assays are conducted in a pH 7.4 buffer (50 mM HEPES, 120 mM NaCl, 5 mM KCl, 2 mM CaCl2, 1.4 mM MgCl2, 0.001% Tween-20) in a well-plate. Oxidation of the substrate is conducted for 2 hrs before the addition of detecting reagent according the manufacture's protocol. The IC50 value of the tested compounds is calculated by fitting the dose response curve using a 4-parameter non-linear regression routine.

[3] = Plasma compound levels by mass spectroscopy in 3H diet mice; format: in vivo, mouse; conditions: for concentration at 2 h: male, C57BL/6N, plasma, read-out: Plasma Compound Level
Protocol: Male C57BL/6N mice are fed with D09100301 diet (Research Diets, 40% fat, 2% cholesterol, 24% fructose, (the, high fat, high cholesterol and high fructose, the “3H diet”) for 150 days. Each mouse is then singly housed after 5 days for an acclimation period. Plasma alanine aminotransferase (ALT) and cytokeratin 18 (CK18) are measured. After one week of recovery, the mice are randomized into 5 groups based on their ALT values, CK18 values, and body weight. […] Blood is collected from mice treated with the compound of Example 6 for 76 days 2 hours after the last dose. Compound levels in the plasma are analyzed by mass spectroscopy.

[4] = test system: SSAO activity in rat plasma and liver; test: SSAO target engagement in rat plasma and liver; format: in vivo; conditions: for SSAO Activity (%) Liver 24 hour / SSAO Activity (%) Plasma 2 hour / SSAO Activity (%) Plasma 24 hour: mean ± SEM, n = 6
Protocol: The SSAO activity in rat plasma and liver tissues are measured using the MAO-Glo™ assay kit from Promega (V1402). The residual SSAO activity in rats after compound treatment is estimated by measuring the total amine oxidase activity in plasma or liver lysates that are insensitive to the presence of the MAO inhibitor Clogyline and Pargyline. Rats are administered the compound of Example 2 at the doses of 15, 3, 0.6, 0.12, 0.025, 0.005 mg/kg. The control group is administered with the same volume (2 ml/kg) of the dosing vehicle (hydroxyethyl cellulose 1% w/v, 0.25% Tween 80). Plasma and liver at 2 or 24 hours post compound treatment are harvested and stored at −78° C. until analysis. Tissue lysates are prepared by homogenization in a lysis buffer (20 mM HEPES, pH 7.4, 150 mM NaCl, 1 mM EDTA, 1 mM EGTA, 1% Triton X-100 and 1× Roche Complete protease inhibitor tablet). Tissue particles are removed by centrifugation at 12,000 rpm at 4° C. for 30 minutes. 40 μl of plasma or liver lysates is incubated with Clogyline (10 μM) and Pargyline (10 μM) for 20 minutes at room temperature before the addition of the luminogenic substrate (50 μM) for 60 minutes. The product generated is quantified according to the manufacture's procedure. The fraction of activity that is insensitive to the presence of the MAO inhibitors is used as the surrogate for the residual SSAO activity. The compound of Example 2 was evaluated in the protocol essentially as described above administered at various doses.

[5] = mouse 3H diet, 0.6 mg/kg once daily, mean ± SEM
[6] = mouse 3H diet, 0.6 mg/kg, mean ± SEM
[7] = mouse 3H diet, 2 mg/kg once daily, mean ± SEM
[8] = mouse 3H diet, 2 mg/kg, mean ± SEM
[9] = mouse 3H diet, 6 mg/kg once daily, mean ± SEM
[10] = mouse 3H diet, 6 mg/kg, mean ± SEM
[11] = mouse 3H diet, 20 mg/kg once daily, mean ± SEM
[12] = mouse 3H diet, 20 mg/kg, mean ± SEM

Chain of human recombinant SSAO (hSSAO) (Q16853 whole entry, canonical isoform): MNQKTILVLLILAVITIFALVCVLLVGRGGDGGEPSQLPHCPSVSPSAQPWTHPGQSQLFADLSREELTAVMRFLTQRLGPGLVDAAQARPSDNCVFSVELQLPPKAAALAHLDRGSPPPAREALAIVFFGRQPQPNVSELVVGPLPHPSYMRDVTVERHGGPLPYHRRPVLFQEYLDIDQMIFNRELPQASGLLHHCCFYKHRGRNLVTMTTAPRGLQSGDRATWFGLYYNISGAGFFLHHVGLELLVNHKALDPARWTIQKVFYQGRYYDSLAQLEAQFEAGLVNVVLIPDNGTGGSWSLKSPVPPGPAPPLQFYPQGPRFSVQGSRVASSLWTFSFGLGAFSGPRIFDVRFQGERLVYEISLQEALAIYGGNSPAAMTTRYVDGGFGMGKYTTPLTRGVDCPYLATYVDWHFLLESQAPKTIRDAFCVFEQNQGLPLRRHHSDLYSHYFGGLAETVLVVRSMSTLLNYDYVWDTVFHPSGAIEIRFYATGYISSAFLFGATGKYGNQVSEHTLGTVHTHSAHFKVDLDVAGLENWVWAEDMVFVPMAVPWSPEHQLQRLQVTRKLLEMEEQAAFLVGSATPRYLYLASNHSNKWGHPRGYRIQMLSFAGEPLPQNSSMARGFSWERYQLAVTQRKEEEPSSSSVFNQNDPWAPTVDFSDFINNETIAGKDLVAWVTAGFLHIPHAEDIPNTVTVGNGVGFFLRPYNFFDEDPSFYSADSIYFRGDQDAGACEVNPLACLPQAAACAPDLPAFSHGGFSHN

SMILES: Cl.Cl.NC/C(=C\F)COc1cnc(N2CC[C@H](O)C2)nc1 [Example 6, (3 S)-1-[5-[(E)-2-(Aminomethyl)-3-fluoro-allyloxy]pyrimidin-2-yl]pyrrolidin-3-ol; Dihydrochloride]
- hepatic inflammation ([1]; 20 mg/kg): significant decrease
- macrovesicular vaculation ([1]; 20 mg/kg): significant decrease
- perisinusoidal fibrosis ([1]; 20 mg/kg): significant decrease
- triglyceride levels in blood ([1]; 6 and 20 mg/kg): decreased
- ALT ([1]; all groups of treated mice): significant decrease
- ALT [1, 5]: 530 ± 45 IU/L
- Plasma TG [1, 5]: 55 ± 6 mg/dL
- Hepatic inflammation Score (0-3) Left [1, 6]: 2.6 ± 0.1
- Macrovesicular vaculation Score (0-3) Left [1, 6]: 2.5 ± 0.1
- Perisinusoidal fibrosis Score (0-3) Left [1, 6]: 2.4 ± 0.2
- Hepatic inflammation Score (0-3) Right [1, 6]: 2.5 ± 0.1
- Macrovesicular vaculation Score (0-3) Right [1, 6]: 2.6 ± 0.1
- Perisinusoidal fibrosis Score (0-3) Right [1, 6]: 1.9 ± 0.2
- ALT [1, 7]: 483 ± 44 IU/L
- Plasma TG [1, 7]: 70 ± 11 mg/dL
- Hepatic inflammation Score (0-3) Left [1, 8]: 2.5 ± 0.1
- Macrovesicular vaculation Score (0-3) Left [1, 8]: 2.5 ± 0.1
- Perisinusoidal fibrosis Score (0-3) Left [1, 8]: 2.5 ± 0.2
- Hepatic inflammation Score (0-3) Right [1, 8]: 2.6 ± 0.1
- Macrovesicular vaculation Score (0-3) Right [1, 8]: 2.7 ± 0.1
- Perisinusoidal fibrosis Score (0-3) Right [1, 8]: 1.8 ± 0.2
- ALT [1, 9]: 495 ± 25 IU/L
- Plasma TG [1, 9]: 46 ± 4 mg/dL
- Hepatic inflammation Score (0-3) Left [1, 10]: 2.5 ± 0.2
- Macrovesicular vaculation Score (0-3) Left [1, 10]: 2.9 ± 0.1
- Perisinusoidal fibrosis Score (0-3) Left [1, 10]: 2.6 ± 0.2
- Hepatic inflammation Score (0-3) Right [1, 10]: 2.6 ± 0.2
- Macrovesicular vaculation Score (0-3) Right [1, 10]: 2.7 ± 0.1
- Perisinusoidal fibrosis Score (0-3) Right [1, 10]: 2.1 ± 0.3
- ALT [1, 11]: 466 ± 37 IU/L
- Plasma TG [1, 11]: 45 ± 5 mg/dL
- Hepatic inflammation Score (0-3) Left [1, 12]: 2.1 ± 0.1
- Macrovesicular vaculation Score (0-3) Left [1, 12]: 2.4 ± 0.2
- Perisinusoidal fibrosis Score (0-3) Left [1, 12]: 1.9 ± 0.2
- Hepatic inflammation Score (0-3) Right [1, 12]: 2.1 ± 0.1
- Macrovesicular vaculation Score (0-3) Right [1, 12]: 2.3 ± 0.1
- Perisinusoidal fibrosis Score (0-3) Right [1, 12]: 1.5 ± 0.2
- IC50 [2]: 52 ± 5 nM
- concentration at 2 h ([3]; mouse, 2 mg/kg once daily, 76 days, 2 hours after last dose, mean ± SEM): 163 ± 21 ng/mL
- concentration at 2 h ([3]; mouse, 6 mg/kg once daily, 76 days, 2 hours after last dose, mean ± SEM): 560 ± 29 ng/mL
- concentration at 2 h ([3]; mouse, 20 mg/kg once daily, 76 days, 2 hours after last dose, mean ± SEM): 2120 ± 219 ng/mL
- Plasma Compound Level ([3]; mouse, 0.6 mg/kg once daily, 76 days, 2 hours after last dose, mean ± SEM): 66. ± 5 ng/ml
- plasma compound levels ([3]; treated mice, all doses): dose-dependent increase

SMILES: CO[C@H]1CCN(c2ncc(OC/C(=C/F)CN)cn2)C1 [Example 5, (E)-3-Fluoro-2-[[2-[(3S)-3-methoxypyrrolidin-1-yl]pyrimidin-5-yl]oxymethyl]prop-2-en-1-amine]
- IC50 [2]: 32 ± 7 nM

SMILES: Cl.Cl.NC/C(=C\F)COc1cnc(N2CCC(O)CC2)nc1 [Example 2, 1-[5-[(E)-2-(Aminomethyl)-3-fluoro-allyloxy]pyrimidin-2-yl]piperidin-4-ol Dihydrochloride]
- SSAO Activity (%) Liver 24 hour ([4]; 0.005 mg/kg): 75 ± 18%
- SSAO Activity (%) Plasma 2 hour ([4]; 0.005 mg/kg): 31 ± 3%
- SSAO Activity (%) Plasma 24 hour ([4]; 0.005 mg/kg): 70 ± 7%
- SSAO Activity (%) Liver 24 hour ([4]; 0.025 mg/kg): 68 ± 14%
- SSAO Activity (%) Plasma 2 hour ([4]; 0.025 mg/kg): 21 ± 1%
- SSAO Activity (%) Plasma 24 hour ([4]; 0.025 mg/kg): 55 ± 9%
- SSAO Activity (%) Liver 24 hour ([4]; 0.12 mg/kg): 45 ± 8%
- SSAO Activity (%) Plasma 2 hour ([4]; 0.12 mg/kg): 7 ± 1%
- SSAO Activity (%) Plasma 24 hour ([4]; 0.12 mg/kg): 35 ± 4%
- SSAO Activity (%) Liver 24 hour ([4]; 0.6 mg/kg): 16.2 ± 2.9%
- SSAO Activity (%) Plasma 2 hour ([4]; 0.6 mg/kg): 4.3 ± 0.8%
- SSAO Activity (%) Plasma 24 hour ([4]; 0.6 mg/kg): 16.3 ± 2.6%
- SSAO Activity (%) Liver 24 hour ([4]; 3 mg/kg): 7.1 ± 1.7%
- SSAO Activity (%) Plasma 2 hour ([4]; 3 mg/kg): 3.6 ± 1.0%
- SSAO Activity (%) Plasma 24 hour ([4]; 3 mg/kg): 8.8 ± 1.3%
- SSAO Activity (%) Liver 24 hour ([4]; 15 mg/kg): 9.6 ± 2.6%
- SSAO Activity (%) Plasma 2 hour ([4]; 15 mg/kg): −0.6 ± 0.3%
- SSAO Activity (%) Plasma 24 hour ([4]; 15 mg/kg): 6.6 ± 1.8%
- SSAO activity in rat plasma and liver ([4]; doses 0.005-15 mg/kg): dose-dependently inhibits

SMILES: COC1CCN(c2ncc(OC/C(=C/F)CN)cn2)CC1 [Example 3, (E)-3-Fluoro-2-[[2-(4-methoxy-1-piperidyl)pyrimidin-5-yl]oxymethyl]prop-2-en-1-amine, Dihydrochloride]
- IC50 [2]: 12 ± 1 nM
